Experiments:
[1] = tested on: CD4+ and CD8+ T cells in whole blood; experiment: T cell activation in whole blood; format: cell-based, human; details: 24 h after addition
Excerpt: FIGS. 9A-D depict graphs summarizing activation marker upregulation in whole blood.
DP47 TCB was included as negative control.

[2] = tested on: T cells in EpCAM positive tumor digests or malignant effusions; experiment: Ex vivo treatment of tumor samples with catumaxomab; format: cell-based, human; details: 4 NSCLC tumor digests, 10 ng/ml, 24 h
Experimental: The trifunctional TCB catumaxomab (Removab®) was obtained from Fresenius. The experimental conditions were similar as indicated above for FolR1-TCB. Briefly, EpCAM positive tumor digests or malignant effusions were cultured in the presence or absence of catumaxomab at a concentration of 10 ng/ml for 24 h. Analysis of CD8^+ and CD4^+ positive T cells (CD45+CD3+) was performed as described above.
To determine to which extent catumaxomab induces T cell activation and to confirm the findings described above using a second, independent T cell bispecific molecule, 4 tumor digests from patients with NSCLC were exposed to catumaxomab, a trifunctional bispecific antibody recognizing CD3 on T cells and EpCAM on tumor cells. Then, T cells were characterized by flow cytometry for expression of activation markers and T cell effector functions (FIG. 17A-D). […] Accordingly, the baseline expression of inhibitory receptors differed between the patients (FIG. 17E-H).

SKOV3 cells [3] = experiment: Killing assay with tumor samples and CFSE-labelled Skov3 cells; format: cell-based
Experimental: To determine the FolR1-TCB induced tumor cell killing, 3×10^4 CFSE-labelled Skov3 cells were cocultured with tumor samples in the presence or absence of FolR1-TCB at a concentration of 2 nM for 24 h in 96-well flat bottom cell culture plates. The E:T ratio (E: effector CD45+CD3+ cells; T: target FolR1^+ cells from tumor and added Skov3 cells) was adjusted to 1:1 in each well and the cell number of the added tumor samples was calculated for each sample according to prior characterization by flow cytometry. Cell death of Skov3 cells was determined by flow cytometry by measuring activated caspase 3 and the live/dead marker Live/Dead-near-IR. The assay was performed in triplicates. The FolR1-TCB mediated killing was calculated according to the following equation: % of specific killing=100−[(% of Skov3 live cells in FolR1-TCB treated sample/% of Skov3 live cells in untreated sample)×100].
To compare the FolR1-TCB-induced killing capacity of T-cells between tumor samples, and to exclude additional factors suppressing T-cell functionality, such as expression of PD-L1 on the tumor cells, we exogenously added CFSE-labeled FolR1^+ Skov3 cells to the tumor digests and adjusted the E:T ratio to 1:1, essentially as described above. We then measured the FolR1-TCB-induced killing of CFSE-labeled Skov3 cells, which allowed us to also include FolR1^− tumor samples into the analysis. […]

SKOV3 cells [4] = experiment: T cell mediated killing (LDH release); format: cell-based, human; details: SKOV3 and HT-29 cells, used concentrations
Experimental: FIGS. 7A-L depict graphs summarizing T cell mediated killing of HT-29 and SKOV3 cells. FolR1 TCBs were used to test T cell mediated killing of HT-29 and SKOV3 tumor cells and upregulation of activation marker on T cells upon killing. […] DP47 TCB was included as negative control. After 48 h incubation upregulation of the activation marker CD25 and CD69 on CD8 T cells and CD4 T cells upon killing of SKOV3 (FIGS. 7E-H) or HT-29 (FIG. 7I-L) tumor cells was assessed by flow cytometry.
Overall killing of SKOV3 cells was higher compared to HT-29 which reflects the higher expression levels of FolR1 on SKOV3 cells (FIGS. 7A-D). In line with this, a strong upregulation of the activation marker CD25 and CD69 on CD4^+ T cells and CD8^+ T cells was detected. Activation of T cells was very similar in the presence of SKOV3 cells and HT-29 cells.

[5] = tested on: T cells in FolR1 positive tumor digests or malignant effusions; experiment: Ex vivo treatment of tumor samples with FolR1-TCB (T cell activation and effector function); format: cell-based, human; details: 24 h
Experimental: FolR1 positive tumor digests or malignant effusions were thawed, washed and plated in 96-well flat bottom cell culture plates (BD Falcon) with a density of […] cells/200 μl/well in complete medium (DMEM+Sodium Pyruvate (1 mM)+MEM non essential AA (1×)+L-Glutamin (2 mM)+Penicillin/Streptomycin ([…])+2-Mercaptoethanol (50 nM)+Ciproxin (1 mg/ml)+10% human Serum). The samples were cultured in the presence or absence of FolR1-TCB or DP47 TCB at a concentration of 2 nM for 24 h. Activation of CD8^+ and CD4^+ T cells (CD45^+CD3^+) upon FolR1-TCB treatment was determined by multicolor flow cytometry by measuring the expression of the cell surface markers CD25, CD69, CD137, ICOS, PD-1 and Tim-3. Furthermore the expression of granzyme B and IFN-γ was determined by intracellular staining. […]
We analyzed whether the expression of inhibitory receptors could be correlated with a diminished T-cell functionality upon FolR1-TCB treatment.

[6] = target: T1, FolR1 on Hela, Skov3, OVCAR5, HT29, MKN45 tumor cells (Homo sapiens, UniProt P15328); experiment: Binding to tumor cells with different FolR1 expression levels (flow cytometry)
T1 construct: endogenous in cells; host or cells: tumour cell line panel (HeLa, SKOV3, OVCAR5, HT-29; MKN-45 as FolR1-negative line)
Excerpt: FIGS. 6A-E depict graphs summarizing binding of FolR1 IgGs to cells with different FolR1 expression levels. […] DP47 IgG was included as isotype control and MKN-45 were included as FolR1 negative cell line.
The FolR1 TCBs were used to determine T cell mediated killing of tumor cells expressing FoLR1. A panel of potential target cell lines was used to determine FoLR1 binding sites by Qifikit analysis.
The used panel of tumor cells contains FolR1 high, intermediate and low expressing tumor cells and a FolR1 negative cell line.
The amount of bound construct is proportional to the FolR1 expression level and there is still good binding of the constructs to the FolR1 low cell line HT-29 detectable. […] DP47 TCB is an untargeted TCB and was prepared as described in WO2014/131712.

[7] = tested on: PBMCs co-cultured with Skov3; experiment: Activation of T-cells from healthy donors by FolR1-TCB (PBMC co-cultured with Skov3); format: cell-based, human; details: 0.6 pM to 2 nM, 24 h
Experimental: FIGS. 40A-C show activation of CD8^+ T-cells upon exposure to increasing concentrations of FolR1-TCB. PBMCs were co-cultured with Skov3 cells for 24 h in the presence or absence of FolR1-TCB or the unspecific control DP-47-TCB. […] Shaded histogram: isotype control; open histogram: anti-FolR1-antibody. FIG. 40B: The expression of the activation markers CD25, CD137, and ICOS on CD8^+ T-cells was determined by flow cytometry. FIG. 40C: IFN-v.
To assess the effect of FolR1-TCB on T-cell activation peripheral blood mononuclear cells (PBMCs) from healthy donors were co-cultured with the FolR1^+ ovarian cancer cell line Skov3 (FIG. 40A). […] In addition, T-cells secreted IL-2, IFN-γ, and TNF.

T cells in tumor digests = experiment: Polyclonal stimulation with anti-CD3/CD28 antibodies and PD-1 blockade; format: cell-based, human; details: 10 μg/ml, 24 hrs
[8] = tested on: T cells in FolR1+ tumor digests or malignant effusions; experiment: FolR1-TCB with PD-1 blockade in tumor digests or malignant effusions (cytokine secretion); format: cell-based, human; details: combined with FolR1-TCB
Experimental: FIG. 38A-D: FolR1^+ tumor digests or malignant effusions were cultured for 24 h with FolR1-TCB in the presence or absence of a PD-1 blocking antibody. […] The increase in cytokine secretion upon combined FolR1-TCB and anti-PD-1 treatment compared with FolR1-TCB alone was determined in PD-1^hi scarce and abundant tumors. FIG. 38E: Tumor digests or malignant effusions were co-cultured with exogenously added fluorescently labeled Skov3 cells at an E:T ratio of 1:1 for 24 h in the presence or absence of a PD-1 blocking antibody and FolR1-TCB. The increase in specific killing by the anti-PD-1 antibody was compared in PD-1^hi scarce and abundant tumors. p-values were calculated using the unpaired Mann-Whitney test.
As the level of PD-1 expression on TILs correlates with the efficacy of FolR1-TCB, we analyzed whether blockade of the PD-1/PD-L1 axis in combination with FolR1-TCB treatment might be able to restore T-cell function.

T1 sequence (P15328 25-257): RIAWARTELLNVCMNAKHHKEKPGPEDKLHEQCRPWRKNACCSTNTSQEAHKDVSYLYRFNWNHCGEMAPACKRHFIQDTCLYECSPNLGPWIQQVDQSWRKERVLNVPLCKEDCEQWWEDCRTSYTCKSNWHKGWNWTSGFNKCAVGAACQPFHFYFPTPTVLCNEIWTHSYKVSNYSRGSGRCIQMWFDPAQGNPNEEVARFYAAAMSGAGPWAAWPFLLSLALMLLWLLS

Mov19 TCB: reference FolR1/CD3 T-cell bispecific with Mov19 binder [reference compound]
upregulation of CD25 and CD69 on CD4+ and CD8+ T cells in whole blood [1]: No activation of T cells

catumaxomab
catumaxomab induced T cell activation [2]: striking heterogeneity

DP47 TCB: untargeted TCB, negative control, prepared as described in WO2014/131712
tumor cell killing (SKOV3 cells [3]; E:T 1:1, 24 h): did not induce any tumor cell killing | induction of tumor cell killing (SKOV3 cells [4]): does not induce any killing | T cell activation [5]: did not induce any T cell activation | binding to panel of tumor cell lines [6]: no binding | T-cell activation (CD25, CD137, ICOS) [7]: did not induce any T-cell activation

nivolumab: PD-1 blocking antibody
cytotoxic tumor cell killing upon additional PD-1 blockade (SKOV3 cells [3]; combined with FolR1-TCB, PD-1hi scarce and abundant tumors): could neither be improved | restoration of T cell effector function (IL-2, IFN-γ, TNF-α) (T cells in tumor digests): only in some patients | secretion of IFN-γ, TNF, IL-2 and perforin upon PD-1 blockade ([8]; PD-1hi abundant tumors): failed to elicit any response | secretion of IFN-γ, TNF, IL-2 and perforin upon PD-1 blockade ([8]; PD-1hi scarce tumors): could be increased only in some of the PD-hi scarce tumors

— patent US11613587B2, “Combination therapy of T cell activating bispecific antigen binding molecules and PD-1 axis binding antagonists” (Hoffmann-La Roche Inc., priority 2014, dated 2023)
